Reference: patent US7304039B2, “Glucose-based compounds with affinity to P-selectin” (Astellas Pharma Europe B.V., priority 2002, dated 2007)

What follows are compounds tested against T1, human P-selectin (Homo sapiens, UniProt P16109) (assay: inhibition assay of SO3-sLea-PAA-biotin binding to immobilized P-selectin). Conditions: inhibition of HSO3-Lea-PAA-biotin (0.33 μg/ml) binding to immobilized human P-selectin/IgG-Fc, 2 hours at 37° C.
T1 sequence (P16109 42-771): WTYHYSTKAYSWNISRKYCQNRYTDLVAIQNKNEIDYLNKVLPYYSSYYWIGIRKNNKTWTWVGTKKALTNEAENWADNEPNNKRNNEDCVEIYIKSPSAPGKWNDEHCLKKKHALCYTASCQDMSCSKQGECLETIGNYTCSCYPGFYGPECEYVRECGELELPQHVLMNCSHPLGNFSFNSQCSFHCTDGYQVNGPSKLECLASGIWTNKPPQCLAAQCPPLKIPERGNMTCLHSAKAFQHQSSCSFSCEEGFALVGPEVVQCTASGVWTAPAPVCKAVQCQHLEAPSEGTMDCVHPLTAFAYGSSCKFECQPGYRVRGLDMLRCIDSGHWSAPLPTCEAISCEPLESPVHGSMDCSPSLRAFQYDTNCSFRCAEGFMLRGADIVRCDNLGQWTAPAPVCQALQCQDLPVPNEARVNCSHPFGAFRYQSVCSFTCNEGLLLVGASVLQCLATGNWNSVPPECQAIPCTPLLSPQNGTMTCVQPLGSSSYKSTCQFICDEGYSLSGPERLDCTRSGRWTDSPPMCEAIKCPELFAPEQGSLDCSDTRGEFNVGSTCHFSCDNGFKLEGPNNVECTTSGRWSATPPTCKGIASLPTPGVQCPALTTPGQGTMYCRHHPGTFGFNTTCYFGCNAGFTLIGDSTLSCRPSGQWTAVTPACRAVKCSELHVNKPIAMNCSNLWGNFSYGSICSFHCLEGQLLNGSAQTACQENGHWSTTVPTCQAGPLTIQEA
Experimental: The activity of compound 3 was evaluated in an inhibition assay of SO3-sLe^a-PAA-biotin binding to immobilized P-selectin as described in the literature (G. Weitz-Schmedt et al., Anal. Biochem. 238, 184-190, 1996) and compared to that of its mannosyl analogue (reference compound 2). A 96 microtiter plate (High binding flat bottom, Costar, Corning, U.S.A.) was coated overnight at 4° C. with 10 μg/ml goat anti-human IgG in coating buffer (50 mM NaHCO3, pH 9.6). Subsequently, wells were washed with assay buffer (20 mM HEPES, 150 mM NaCl, 1 mM CaCl2, pH 7.4) and incubated for 1 hour at 37° C. with blocking buffer (3% BSA in assay buffer). After washing with assay buffer, the wells were incubated for 2 hours at 37° C. with human P-selectin/IgG-Fc (0.3 μg/ml) or CD4/IgG-Fc (as negative control). Subsequently, wells were washed three times with assay buffer and incubated for 2 hours at 37° C. in binding buffer (0.1% BSA, 0.05% Tween 20 in assay buffer) with 0.33 μg/ml HSO3-Le^a-PAA-biotin and the compound. The wells were washed six times with binding buffer and 3,3′,5,5′-tetramethylbenzine (TMB)/H2O2 was added and incubated at room temperature for 15 minutes. The reaction was halted by addition of 2M H2SO4 and the absorbance was measured at 450 nm.
The binding of compounds 6d, 6f, and 6i to P-selectin was evaluated using the same inhibition assay as described in example 2.

Row | EC50 [mM] | SMILES
1 | 4.5 | CCCCCCCC(=O)NC1C(OCC(O)C(O)C(=O)COP(=O)(O)O)OC(CO)C(O)C1O (centres unmarked) [Compound 6c]
2 | 0.9 | O=C(NC1C(OCC(O)C(O)C(=O)COP(=O)(O)O)OC(CO)C(O)C1O)c1ccccc1 (centres unmarked) [Compound 6f]
3 | 2 | O=C(COP(=O)(O)O)C(O)C(O)COC1OC(CO)C(O)C(O)C1O (centres unmarked) [Compound 3]
4 | 8.2 | O=C(COP(=O)(O)O)C(O)C(O)COC1OC(CO)C(O)C(O)C1O (centres unmarked) [Reference compound 2, reference compound]
5 | 3.7 | O=C(NC1C(OCC(O)C(O)C(=O)COP(=O)(O)O)OC(CO)C(O)C1O)OCC(Cl)(Cl)Cl (centres unmarked) [Compound 6d]
